# Data taken from ChEMBL document CHEMBL1201862, “PubChem BioAssay data set” (2004).
# Active and inactive are the calls of the source.
# Tests used:
# cells = assay type: functional
# [1] = target: T1, Rac GTPase-activating protein 1 (Homo sapiens, UniProt Q9H0H5); experiment: blockers of MgcRacGAP-driven Rac1 GTP hydrolysis – biochemical, ADP Hunter fluorescence, primary and confirmatory, confirmation (AID 624330); assay type: functional
# T1 sequence (Q9H0H5 whole entry): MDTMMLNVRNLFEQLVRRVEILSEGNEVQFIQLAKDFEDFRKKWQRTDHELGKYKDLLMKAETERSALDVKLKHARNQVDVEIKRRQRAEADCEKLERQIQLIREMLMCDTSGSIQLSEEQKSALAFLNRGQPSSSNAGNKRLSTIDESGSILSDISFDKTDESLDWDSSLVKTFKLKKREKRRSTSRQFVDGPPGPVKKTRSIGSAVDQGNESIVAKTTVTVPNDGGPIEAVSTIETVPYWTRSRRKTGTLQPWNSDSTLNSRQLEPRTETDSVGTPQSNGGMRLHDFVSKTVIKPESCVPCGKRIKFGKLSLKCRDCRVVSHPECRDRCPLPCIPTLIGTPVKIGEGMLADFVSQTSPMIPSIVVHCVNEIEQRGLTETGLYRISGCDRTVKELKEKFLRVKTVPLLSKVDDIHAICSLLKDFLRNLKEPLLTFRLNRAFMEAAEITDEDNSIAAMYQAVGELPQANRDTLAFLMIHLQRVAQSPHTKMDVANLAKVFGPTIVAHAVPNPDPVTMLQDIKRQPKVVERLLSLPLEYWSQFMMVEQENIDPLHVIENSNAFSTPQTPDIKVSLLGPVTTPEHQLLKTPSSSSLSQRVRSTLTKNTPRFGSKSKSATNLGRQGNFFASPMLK
# [2] = Luminescence Cell-Based Dose Confirmation HTS to Identify Activators of 5'UTR Stem-Loop Driven Alpha-Synuclein mRNA Translation in H4 Neuroglioblastoma Cells. [Related pubchem assays: 1829 (Project Summary), 1814 (Primary HTS)]; assay type: functional
# [3] = Luminescence Cell-Based Dose Response HTS to Identify Activators of Luciferase Translation or Activity in H4 […] Cells. [Related pubchem assays: 1829 (Project Summary), 1814 (Primary HTS)]; assay type: functional
# H4 = experiment: Luminescence Cell-Based Dose Response HTS to Identify Activators of 5'UTR Stem-Loop Driven Prion Protein mRNA Translation in H4 Neuroglioblastoma Cells. [Related pubchem assays: 1829 (Project Summary), 1814 (Primary HTS)]; assay type: functional; conditions: Homo sapiens
# Genome polyprotein = Genome polyprotein (dengue virus type 2, UniProt P29990); experiment: flavivirus cap methylation enzyme inhibition – biochemical, confirmation dose response, primary screen (AID 588689); assay type: functional
# [4] = target: T2, RNA-binding protein pos-1 (Caenorhabditis elegans, UniProt G5EF15); experiment: disruptors of C. elegans POS-1 RNA interaction – biochemical, fluorescence polarization, dose response (AID 1964);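 also: purified POS-1 fused to maltose binding protein made in E. coli; potency of compounds blocking POS-1 binding to fluorescent RNA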
# T2 sequence (G5EF15 whole entry): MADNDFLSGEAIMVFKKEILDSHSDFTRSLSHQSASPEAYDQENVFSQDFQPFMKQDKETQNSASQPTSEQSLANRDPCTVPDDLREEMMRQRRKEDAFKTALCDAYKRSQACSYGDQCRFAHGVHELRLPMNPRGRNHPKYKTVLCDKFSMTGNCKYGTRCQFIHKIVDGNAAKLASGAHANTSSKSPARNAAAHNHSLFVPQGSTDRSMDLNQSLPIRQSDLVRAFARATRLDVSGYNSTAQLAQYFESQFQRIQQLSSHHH
# [5] = target: T3, Zinc finger protein mex-5 (Caenorhabditis elegans, UniProt Q9XUB2); experiment: potency of MEX-5 RNA-binding blockers – biochemical, C. elegans, fluorescence polarization, dose response (AID 1960)
# T3 sequence (Q9XUB2 whole entry): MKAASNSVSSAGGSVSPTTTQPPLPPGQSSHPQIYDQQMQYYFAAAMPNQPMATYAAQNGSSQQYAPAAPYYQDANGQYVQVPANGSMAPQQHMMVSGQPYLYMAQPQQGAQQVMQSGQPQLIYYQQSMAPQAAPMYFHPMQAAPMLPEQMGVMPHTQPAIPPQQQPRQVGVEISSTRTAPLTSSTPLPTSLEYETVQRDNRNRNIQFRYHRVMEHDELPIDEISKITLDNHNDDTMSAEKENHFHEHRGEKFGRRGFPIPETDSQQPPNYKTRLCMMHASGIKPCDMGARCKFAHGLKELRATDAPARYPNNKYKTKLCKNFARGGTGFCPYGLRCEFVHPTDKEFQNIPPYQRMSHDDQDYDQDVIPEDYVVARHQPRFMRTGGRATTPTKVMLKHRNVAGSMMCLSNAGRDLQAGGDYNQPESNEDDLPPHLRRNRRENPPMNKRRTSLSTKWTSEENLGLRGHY
# [6] = reduction of Shn3 3'UTR-driven luciferase in osteoblasts – cell-based, Clone20 osteoblasts, firefly luciferase, cherry-picked, dose response (AID 624132); assay type: functional;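 also: firefly luciferase luminescence from reporter carrying the Shn3 3'UTR in osteoblasts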
# [7] = loss of viability in HepG2 cells – cell-based, CellTiter-Glo, cherry-picked, cytotoxicity control for Shn3 inhibitor project, dose response (AID 624134); assay type: functional
# [8] = non-specific 3'UTR reporter inhibition in Clone20-Shn3RL – cell-based, Renilla luciferase, cherry-picked, counter-screen for Shn3 inhibitor project, dose response (AID 624133); assay type: functional
# [9] = Trypanosoma cruzi growth suppression in host cells – NIH3T3 host cells, beta-gal luminescence, confirmation (AID 2044); assay type: functional, cell-based;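 also: intracellular parasites grown in NIH/3T3 mouse fibroblasts as host cells; luminescent beta-galactosidase reporter signal from transgenic T. cruzi replicating inside host cells; inhibitors lower the luminescence signal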
# [10] = NIH3T3 cell viability loss – ATP luminescence, mouse fibroblasts, counter-screen, dose response (AID 2010); assay type: functional, cell-based;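 also: cells exposed to compound for about 90 hours before reading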
# Nonstructural protein 1 = Nonstructural protein 1 (Influenza A virus, UniProt Q194T2); assay type: functional, Influenza A virus (A/California/07/2009(H1N1))
# [11] = target: Luciferin 4-monooxygenase (Photinus pyralis, UniProt P08659); experiment: inhibition of purified Photinus pyralis luciferase – biochemical, luminescence, dose response (AID 1891)
# [12] = Luminescence Cell-Based Dose Confirmation HTS to Identify Inhibitors of Platelet Dense Granule Release. [Related pubchem assays: 1663 (Primary HTS), 1678 (Summary of Project)]; assay type: functional
# P388/ADR = experiment: cells; assay type: functional; conditions: Mus musculus
# SN12K1 = experiment: cells; assay type: functional; conditions: Homo sapiens
# P388 = experiment: cells; assay type: functional; conditions: Mus musculus
# Fatty acid synthase = Fatty acid synthase (Homo sapiens, UniProt P49327); experiment: inhibition of human FAS-TE enzyme activity – biochemical, kinetic fluorescence intensity, dose response (AID 624326); assay type: functional;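 also: rate of fluorescence rise from hydrolysis of a fluorogenic O-methyl fluorescein ester substrate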
# Sequence of Fatty acid synthase (P49327 whole entry): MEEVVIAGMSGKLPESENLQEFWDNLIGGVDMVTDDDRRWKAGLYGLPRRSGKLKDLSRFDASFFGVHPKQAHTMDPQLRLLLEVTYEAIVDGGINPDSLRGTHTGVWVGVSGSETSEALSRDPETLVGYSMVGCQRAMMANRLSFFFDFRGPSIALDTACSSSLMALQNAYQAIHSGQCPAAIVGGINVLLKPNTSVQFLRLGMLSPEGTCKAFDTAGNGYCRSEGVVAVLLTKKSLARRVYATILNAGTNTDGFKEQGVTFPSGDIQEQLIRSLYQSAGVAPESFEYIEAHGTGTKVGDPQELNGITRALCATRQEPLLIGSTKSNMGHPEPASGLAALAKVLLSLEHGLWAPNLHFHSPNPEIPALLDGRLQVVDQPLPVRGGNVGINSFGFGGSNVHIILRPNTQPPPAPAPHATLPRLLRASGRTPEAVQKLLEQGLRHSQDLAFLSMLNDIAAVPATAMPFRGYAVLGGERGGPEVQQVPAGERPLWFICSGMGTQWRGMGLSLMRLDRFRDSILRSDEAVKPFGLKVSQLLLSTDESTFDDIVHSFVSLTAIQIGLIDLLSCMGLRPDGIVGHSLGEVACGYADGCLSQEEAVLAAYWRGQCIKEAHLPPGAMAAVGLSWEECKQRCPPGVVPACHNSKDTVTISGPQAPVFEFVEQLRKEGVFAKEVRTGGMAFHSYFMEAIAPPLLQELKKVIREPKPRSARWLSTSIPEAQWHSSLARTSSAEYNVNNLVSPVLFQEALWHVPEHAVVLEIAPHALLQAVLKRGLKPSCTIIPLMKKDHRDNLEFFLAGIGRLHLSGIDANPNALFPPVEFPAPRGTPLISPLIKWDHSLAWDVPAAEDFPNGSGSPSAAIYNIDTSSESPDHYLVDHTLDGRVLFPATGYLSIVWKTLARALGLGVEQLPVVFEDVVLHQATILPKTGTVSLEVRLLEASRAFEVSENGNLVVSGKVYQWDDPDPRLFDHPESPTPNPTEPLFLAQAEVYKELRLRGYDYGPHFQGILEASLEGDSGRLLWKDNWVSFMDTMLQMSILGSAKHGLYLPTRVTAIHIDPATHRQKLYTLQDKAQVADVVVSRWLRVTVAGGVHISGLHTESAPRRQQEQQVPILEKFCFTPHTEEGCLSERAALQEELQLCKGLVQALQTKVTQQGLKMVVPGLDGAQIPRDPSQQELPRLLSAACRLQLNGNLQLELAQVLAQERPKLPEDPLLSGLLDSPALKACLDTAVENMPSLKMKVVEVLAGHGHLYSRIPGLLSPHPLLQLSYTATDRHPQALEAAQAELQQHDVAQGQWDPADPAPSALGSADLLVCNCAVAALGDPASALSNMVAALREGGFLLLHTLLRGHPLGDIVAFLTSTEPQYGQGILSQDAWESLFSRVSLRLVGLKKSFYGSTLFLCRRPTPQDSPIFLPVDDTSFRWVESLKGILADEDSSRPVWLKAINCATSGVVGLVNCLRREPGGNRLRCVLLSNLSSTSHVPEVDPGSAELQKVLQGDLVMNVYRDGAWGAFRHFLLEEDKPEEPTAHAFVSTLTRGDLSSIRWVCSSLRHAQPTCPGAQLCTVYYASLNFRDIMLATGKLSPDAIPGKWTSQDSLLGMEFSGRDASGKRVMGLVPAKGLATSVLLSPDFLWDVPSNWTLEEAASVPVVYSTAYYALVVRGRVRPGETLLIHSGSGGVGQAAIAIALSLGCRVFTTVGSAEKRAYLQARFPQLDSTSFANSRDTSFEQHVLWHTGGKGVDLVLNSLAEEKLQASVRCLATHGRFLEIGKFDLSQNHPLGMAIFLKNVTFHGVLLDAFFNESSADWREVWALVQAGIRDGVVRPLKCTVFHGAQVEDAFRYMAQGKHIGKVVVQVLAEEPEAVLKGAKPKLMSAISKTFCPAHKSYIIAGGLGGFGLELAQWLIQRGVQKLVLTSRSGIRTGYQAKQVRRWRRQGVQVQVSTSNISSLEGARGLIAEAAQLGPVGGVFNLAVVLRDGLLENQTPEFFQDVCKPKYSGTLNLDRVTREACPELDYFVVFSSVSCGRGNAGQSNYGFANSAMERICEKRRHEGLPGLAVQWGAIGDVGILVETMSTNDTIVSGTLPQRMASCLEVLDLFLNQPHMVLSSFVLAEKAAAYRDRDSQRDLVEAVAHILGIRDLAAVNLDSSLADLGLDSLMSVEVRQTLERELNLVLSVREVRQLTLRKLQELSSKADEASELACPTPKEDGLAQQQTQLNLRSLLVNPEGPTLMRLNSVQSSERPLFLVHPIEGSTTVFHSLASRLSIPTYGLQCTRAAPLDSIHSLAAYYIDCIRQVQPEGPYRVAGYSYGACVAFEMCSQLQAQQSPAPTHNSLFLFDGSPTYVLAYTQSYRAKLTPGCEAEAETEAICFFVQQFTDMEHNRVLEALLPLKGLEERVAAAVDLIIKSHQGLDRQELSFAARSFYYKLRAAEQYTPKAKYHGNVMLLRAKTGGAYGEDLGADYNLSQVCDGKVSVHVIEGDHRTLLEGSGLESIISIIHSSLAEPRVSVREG
# Sequence of Genome polyprotein (P29990 2492-3391 limits assumed): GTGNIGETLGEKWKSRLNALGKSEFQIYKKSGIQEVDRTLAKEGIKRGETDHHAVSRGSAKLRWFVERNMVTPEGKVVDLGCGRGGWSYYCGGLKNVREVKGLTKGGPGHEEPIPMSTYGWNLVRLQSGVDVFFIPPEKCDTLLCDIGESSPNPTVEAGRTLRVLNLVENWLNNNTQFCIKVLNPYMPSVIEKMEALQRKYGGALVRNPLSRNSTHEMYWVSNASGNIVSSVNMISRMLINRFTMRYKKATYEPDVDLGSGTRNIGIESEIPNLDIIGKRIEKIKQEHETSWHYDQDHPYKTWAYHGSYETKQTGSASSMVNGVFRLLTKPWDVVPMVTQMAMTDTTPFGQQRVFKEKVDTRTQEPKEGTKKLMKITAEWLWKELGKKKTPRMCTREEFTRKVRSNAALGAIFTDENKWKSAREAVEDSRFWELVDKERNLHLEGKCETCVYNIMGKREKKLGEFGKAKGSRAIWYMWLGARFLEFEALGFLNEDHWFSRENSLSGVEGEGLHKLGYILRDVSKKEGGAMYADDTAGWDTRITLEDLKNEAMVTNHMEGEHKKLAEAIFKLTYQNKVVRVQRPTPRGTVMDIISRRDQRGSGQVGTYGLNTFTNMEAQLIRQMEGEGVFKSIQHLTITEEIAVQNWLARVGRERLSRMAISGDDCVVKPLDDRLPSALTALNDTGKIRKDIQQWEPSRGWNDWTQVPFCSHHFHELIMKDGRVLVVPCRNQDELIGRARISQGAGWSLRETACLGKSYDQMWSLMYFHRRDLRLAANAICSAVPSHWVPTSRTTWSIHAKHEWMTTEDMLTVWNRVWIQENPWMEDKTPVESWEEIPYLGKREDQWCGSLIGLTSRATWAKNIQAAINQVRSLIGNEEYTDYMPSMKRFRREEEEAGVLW
# Sequence of Nonstructural protein 1 (Q194T2 whole entry): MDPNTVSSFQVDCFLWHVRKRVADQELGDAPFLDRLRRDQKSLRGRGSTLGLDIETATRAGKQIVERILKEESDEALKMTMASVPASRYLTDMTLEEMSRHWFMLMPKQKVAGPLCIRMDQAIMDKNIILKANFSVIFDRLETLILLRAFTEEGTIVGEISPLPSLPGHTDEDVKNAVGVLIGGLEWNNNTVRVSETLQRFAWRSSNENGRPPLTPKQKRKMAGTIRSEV
# Sequence of Luciferin 4-monooxygenase (P08659 whole entry): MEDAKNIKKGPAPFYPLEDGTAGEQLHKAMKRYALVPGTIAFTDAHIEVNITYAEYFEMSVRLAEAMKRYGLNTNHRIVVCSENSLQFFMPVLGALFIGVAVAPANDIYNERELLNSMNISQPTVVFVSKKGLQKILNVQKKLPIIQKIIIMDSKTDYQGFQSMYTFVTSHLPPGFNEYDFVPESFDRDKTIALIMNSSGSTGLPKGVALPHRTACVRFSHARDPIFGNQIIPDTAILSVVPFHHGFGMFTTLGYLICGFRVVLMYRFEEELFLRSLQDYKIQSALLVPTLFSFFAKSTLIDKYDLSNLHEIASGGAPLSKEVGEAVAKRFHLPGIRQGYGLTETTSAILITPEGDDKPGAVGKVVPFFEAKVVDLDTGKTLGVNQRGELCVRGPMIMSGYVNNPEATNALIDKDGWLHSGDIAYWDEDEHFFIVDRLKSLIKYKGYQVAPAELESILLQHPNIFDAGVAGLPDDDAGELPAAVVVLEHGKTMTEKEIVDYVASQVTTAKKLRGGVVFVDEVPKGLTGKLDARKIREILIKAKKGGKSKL
smiles,measurement,setting,value
c1ccc(-c2ccccc2OCCCCn2ccnc2)cc1,IC50,cells,18.1 µM (active)
same,IC50,[1],127 µM (active)
CCOC(=O)c1cc(C)n(CCc2ccccc2)c1C,EC50,[2],> 120 µM (not active)
same,EC50,[3],15.7 µM (active)
same,EC50,H4,> 120 µM (not active)
CCc1cccc(NC(=O)Nc2cccs2)c1,EC50,[2],14.6 µM (active)
same,EC50,[3],2.48 µM (active)
same,EC50,H4,> 120 µM (not active)
O=C(O)/C=C/C(=O)c1c(-c2ccccc2)[nH]c2ccccc12,IC50,Genome polyprotein,> 100 µM (active)
O=C1NC(=O)C(=Cc2cc(Cl)ccc2OCc2ccc(C(=O)O)cc2)C(=O)N1,IC50,Genome polyprotein,20.7 µM (active)
CC(=O)c1ccc2c(c1)C1C=CCC1C(c1ccncc1)N2 (stereo unspecified),EC50,[4],> 300 µM (not active)
same,EC50,[2],14.4 µM (active)
same,EC50,[3],9.61 µM (active)
same,EC50,H4,25.5 µM (active)
same,EC50,[5],47.7 µM (active)
COc1ccc(C(=O)C(C)OC(=O)c2cccc(S(=O)(=O)Nc3cc(Cl)c(OC)cc3OC)c2)cc1 (stereo unspecified),AC50,[6],5.54 µM (active)
same,AC50,[7],> 70 µM (inactive)
same,AC50,[8],28.6 µM (active)
CCCOC1CCCN(C(=O)c2cc(COc3cncc(Cl)c3)on2)C1 (stereo unspecified),EC50,[2],3.46 µM (active)
same,EC50,[3],47.5 µM (active)
same,EC50,H4,59.7 µM (active)
O=C1ON=C(c2ccc([N+](=O)[O-])cc2)/C1=C/c1ccccc1O,IC50,Genome polyprotein,32.4 µM (active)
O=C(Nc1ccccc1F)c1ccc2nc(N3C(=O)CCC3=O)sc2c1,EC50,[2],29.8 µM (active)
same,EC50,[3],32.5 µM (active)
same,EC50,H4,8.54 µM (active)
CCCCNC(=O)COC(=O)c1cc(Br)ccc1Cl,IC50,cells,9.24 µM (active)
Cc1ccc(S(=O)(=O)NCc2ccc3c(c2)cc(C)n3C)cc1,EC50,[9],3.2 µM (active)
same,EC50,[10],> 60 µM (not active)
same,IC50,Nonstructural protein 1,86.6 µM (active)
CCN(CC)CCNC(=O)c1nn(-c2ccc(C)cc2)c(=O)c2c1c1ccccc1n2C,EC50,[2],15 µM (active)
same,EC50,[3],> 120 µM (not active)
same,EC50,H4,61.3 µM (active)
same,EC50,[9],0.157 µM (active)
same,EC50,[10],> 30 µM (not active)
COc1cc(O)c2c(=O)c(-c3ccc(O[C@@H]4O[C@H](CO)[C@@H](O)[C@H](O)[C@H]4O)cc3)coc2c1,EC50,[2],0.25 µM (active)
same,EC50,[3],38.6 µM (active)
same,EC50,H4,21.2 µM (active)
O=C(/C=C/c1ccccc1Cl)Nc1ccncc1,EC50,[2],26.2 µM (active)
same,EC50,[3],56.2 µM (active)
same,EC50,H4,0.524 µM (active)
same,EC50,[11],20.6 µM (active)
same,EC50,[12],26.7 µM (active)
Cc1cc(-c2sccc2Br)nc(-n2cccc2)n1,EC50,[2],> 120 µM (not active)
same,EC50,[3],13.3 µM (active)
same,EC50,H4,9.52 µM (active)
C=C1CC(COc2cc(=O)oc3ccccc23)(c2ccccc2)OC1=O (stereo unspecified),AC50,[6],3.93 µM (active)
same,AC50,[7],13.7 µM (active)
same,AC50,[8],7.58 µM (active)
CC(C)(C)OC(=O)NCCCCCNC(=O)c1[nH]cnc1C(=O)NCc1ccc(CNC(=O)OC(C)(C)C)cc1,AC50,[6],3.95 µM (active)
same,AC50,[7],> 70 µM (inactive)
same,AC50,[8],8.62 µM (active)
CCN1CC2(CO)CCC(OC)C34C5CC6C(OC)CC(O)(C5C6OC)C(O)(C(OC)C23)C14 (stereo unspecified),GI50,P388/ADR,> 80.7 µM (inactive)
same,GI50,SN12K1,> 375 µM (inactive)
same,GI50,P388,> 174 µM (inactive)
O=C(O)CCC(NC(=O)c1ccc(Nc2nc3ccc(C(F)(F)F)cc3nc2-c2ccccc2)cc1)C(=O)O (stereo unspecified),GI50,P388/ADR,71.1 µM (inactive)
same,GI50,SN12K1,> 100 µM (inactive)
same,GI50,P388,35 µM (inactive)
Cn1c(-c2ccccc2)cc(-c2cccs2)c1-c1cccs1,GI50,P388/ADR,33.2 µM (inactive)
same,GI50,SN12K1,18.1 µM (inactive)
same,GI50,P388,10.8 µM (inactive)
C=C1C(=O)OC2CC3(C)OC3C3OC3C3=CC(OC3=O)C12 (stereo unspecified),AC50,[6],1.45 µM (active)
same,AC50,[7],19.2 µM (active)
same,AC50,[8],1.86 µM (active)
Cn1cccc1/C=N/NC(=O)c1ccncc1,IC50,cells,0.75 µM (active)
O=CNc1cccc2c3c([nH]c12)CCCCCC3,GI50,P388/ADR,73.1 µM (inactive)
same,GI50,SN12K1,> 100 µM (inactive)
same,GI50,P388,> 65.3 µM (inactive)
CC1[C@@H]2CC=C3[C@H]4CCC5Cc6nc7c(nc6C[C@@]5(C)C4(O)CC(=O)[C@]32CO[C@]12OC(C)(C)CC2O)CC1CC[C@@H]2C3=C[C@H]4O[C@@]5(O[C@@](C)(CO)C[C@@H]5O)C(C)[C@@]4(O)[C@]3(C)[C@@H](O)CC2[C@]1(C)C7 (stereo partly specified),GI50,P388/ADR,0.00879 µM (active)
same,GI50,P388,0.00036 µM (active)
CN(C)CCNCc1c2ccccc2c(CNCCN(C)C)c2ccccc12,GI50,P388/ADR,> 100 µM (inactive)
same,GI50,SN12K1,25 µM (inactive)
same,GI50,P388,36.9 µM (inactive)
O=C(N/N=C/c1ccccn1)c1cccc(S(=O)(=O)Nc2ccccc2Cl)c1,IC50,cells,47.1 µM (active)
O=C(N/N=C/c1cccc2nccnc12)c1ccncc1,IC50,cells,0.21 µM (active)
Cc1cc(C(=O)N/N=C/c2cc([N+](=O)[O-])cc(C)c2O)[nH]n1,IC50,Nonstructural protein 1,8.76 µM (active)
same,IC50,Fatty acid synthase,11.8 µM (active)
O=C(N/N=C/C=C/c1ccccc1[N+](=O)[O-])c1ccncc1,IC50,cells,0.4 µM (active)
Nc1nc(=O)n(C2OC(CO)C(O)C2O)cc1F (stereo unspecified),GI50,P388/ADR,0.016 µM (active)
same,GI50,SN12K1,0.0705 µM (active)
same,GI50,P388,< 0.0107 µM (active)
O[C@H]1[C@H](O)[C@@H](O)CN2CC[C@H](O)[C@H]12 [CASTANOSPERMINE],GI50,P388/ADR,> 91 µM (inactive)
same,GI50,SN12K1,> 100 µM (inactive)
same,GI50,P388,> 100 µM (inactive)
CN(C)/N=N/c1[nH]cnc1C(N)=O [DACARBAZINE],GI50,P388/ADR,40.3 µM (inactive)
same,GI50,SN12K1,28.6 µM (inactive)
same,GI50,P388,19.3 µM (inactive)
